What was measured:
JAK2 = JAK2 (Homo sapiens (Human), UniProt O60674); experiment: JAK2 enzyme assay (Z'-LYTE); format: biochemical; conditions: 25 μM ATP, arithmetic mean of two or more experiments
Procedure: (§1) The inhibitory activity of compounds against AURKA, AURKB, JAK1, JAK2 and JAK3 was determined in Z′-LYTE® assays run by ThermoFisher Scientific as part of their SelectScreen® Biochemical Kinase Profiling Service. The Z′-LYTE® biochemical assay format employs a fluorescence-based, coupled-enzyme format and is based on the differential sensitivity of phosphorylated and non-phosphorylated peptides to proteolytic cleavage. The peptide substrate is labeled with two fluorophores—one at each end—that make up a FRET pair. In the primary reaction, the kinase transfers the gamma-phosphate of ATP to a single tyrosine, serine or threonine residue in a synthetic FRET-peptide. In the secondary reaction, a site-specific protease recognises and cleaves non-phosphorylated FRET-peptides. Phosphorylation of FRET-peptides suppresses cleavage by the Development Reagent. Cleavage disrupts FRET between the donor (i.e., coumarin) and acceptor (i.e., fluorescein) fluorophores on the FRET-peptide, whereas uncleaved, phosphorylated FRET-peptides maintain FRET. A ratiometric method, which calculates the ratio (the Emission Ratio) of donor emission to acceptor emission after excitation of the donor fluorophore at 400 nm, is used to quantitate reaction progress. Both cleaved and uncleaved FRET-peptides contribute to the fluorescence signals and therefore to the Emission Ratio. The extent of phosphorylation of the FRET-peptide can be calculated from the Emission Ratio.
(§2) 10 point three-fold dilution compound concentration-response curves, with a top concentration of 10 μM were generated from 10 mM stocks of compound solubilised in DMSO. All assays were performed in black, non-binding, low volume Corning 384-well plates (cat. #4514, Corning), in a total reaction volume of 10 μL and 1% (v/v) final DMSO concentration. […] The kinase reaction was then quenched by the addition of 5 μL of Development Reagent (ThermoFisher Scientific proprietary). […] IC50 values were calculated using XLfit software (IDBS Ltd, Surrey, UK), with the curve fit to model number 205 (sigmoidal dose-response model).
JAK2: The 2×JAK2/Tyr 06 (ThermoFisher Scientific proprietary) mixture was prepared in 50 mM HEPES pH 7.5, 0.01% BRIJ-35, 10 mM MgCl2, 1 mM EGTA. […] After the 1 hour Kinase Reaction incubation, 5 μL of a 1:128 dilution of Development Reagent was added.

TTK = TTK (Homo sapiens (Human), UniProt P33981); experiment: TTK enzyme assay (LanthaScreen Eu Kinase Binding); conditions: arithmetic mean of two or more experiments
Procedure: The inhibitory activity of compounds against TTK was determined in a LanthaScreen® Eu Kinase Binding assay run by ThermoFisher Scientific as part of their SelectScreen® Biochemical Kinase Profiling Service. The LanthaScreen® Eu Kinase Binding assay format uses binding of an Alexa Fluor® conjugate or “tracer” to a kinase, which is detected by addition of a Eu-labeled anti-tag antibody. […] The degree of FRET measured in the assay is used to determine the binding of a compound.
10 point three-fold dilution compound concentration-response curves, with a top concentration of 10 μM were generated from 10 mM stocks of compound solubilised in DMSO. All assays were performed in white, low volume Greiner 384-well plates (cat. #784207, Greiner), in a total reaction volume of 16 μL and 1% (v/v) final DMSO concentration. […] Plates were then read using a fluorescence plate reader. IC50 values were calculated using XLfit software (IDBS Ltd, Surrey, UK), with the curve fit to model number 205 (sigmoidal dose-response model).

AURKB (Aurora B) = AURKB (Aurora B) (Homo sapiens (Human), UniProt Q96GD4); experiment: Aurora-B enzyme assay (Z'-LYTE); format: biochemical; conditions: 75 μM ATP, arithmetic mean of two or more experiments
Procedure: as §1, §2
Aurora B (AurB): The 2×AURKB (Aurora B)/Ser/Thr 01 (ThermoFisher Scientific proprietary) mixture was prepared in 50 mM HEPES pH 7.5, 0.01% BRIJ-35, 10 mM MgCl2, 1 mM EGTA. […] After the 1 hour Kinase Reaction incubation, 5 μL of a 1:4096 dilution of Development Reagent was added.

AURKA (Aurora A) = AURKA (Aurora A) (Homo sapiens (Human), UniProt O14965); experiment: Aurora-A enzyme assay (Z'-LYTE); format: biochemical; conditions: 10 μM ATP, arithmetic mean of two or more experiments
Procedure: as §1, §2
Aurora A (AurA): The 2×AURKA (Aurora A)/Ser/Thr 01 (ThermoFisher Scientific proprietary) mixture was prepared in 50 mM HEPES pH 7.5, 0.01% BRIJ-35, 10 mM MgCl2, 1 mM EGTA. […] After the 1 hour Kinase Reaction incubation, 5 μL of a 1:4096 dilution of Development Reagent was added.

[1] = target: Full length human DNAPK protein (Homo sapiens (Human), UniProt P78527); experiment: DNAPK enzyme potency assay (DNA-PK enz), TR-FRET; format: biochemical; conditions: arithmetic mean of two or more experiments, 18 μM ATP
Description: The following assays were used to measure the effects of the compounds described herein: a) DNAPK enzyme potency assay; b) DNAPK cellular potency assay. During the description of the assays, generally: • i. The following abbreviations have been used; DMSO=Dimethyl Sulphoxide; DTT=Dithiothreitol; EDTA=Ethylenediaminetetraacetic Acid, TR-FRET=Time Resolved Fluorescence Resonance Energy Transfer, ATP=Adenosine triphosphate, DTT=Dithiothreitol, DNA=Deoxyribonucleic acid, HEPES=(2-hydroxyethyl)-1-piperazineethanesulfonic acid • ii. […] Assay a): DNAPK Enzyme Potency Assay (DNA-PK Enz)
The inhibitory activity of compounds against DNAPK was determined by TR-FRET measuring a fluorescent labelled peptide substrate converting to a phosphorylated product. Fluorescently tagged peptide substrate were purchased from Thermo Fisher Scientific. 12 point half-log compound concentration-response curves, with a top concentration of 100 μM were generated from 10 mM stocks of compound solubilised in DMSO using an Echo 555 (Labcyte Inc., Sunnyvale, CA). All assays were preformed in white Greiner 1536 well low volume plates (Greiner Bio-One, UK), in a total reaction volume of 3 μL and 1% (v/v) final DMSO concentration. Enzymes and substrates were added separately to the compound plates and incubated at room temperature. The kinase reaction was then quenched by the addition of 3 μL of stop buffer. Stopped assay plates were read using a BMG Pherastar. IC50 values were calculated using a Genedata Screener® software (Genedata, Inc., Basel, Switzerland).
Full length human DNAPK protein was purified from HeLa cell extract by ion exchange. Initially DNAPK protein was incubated with compound for 30 minutes at room temperature in reaction buffer (50 mM Hepes pH 7.5, 0.01% Brij-35, 10 mM MgCl2, 1 mM EGTA, 1 mM DTT, […] Calf Thymus DNA). The reaction was then initiated by the addition of ATP and fluorescently tagged peptide substrate (Fluorescein-[…], Thermo Fisher Scientific). […] The reaction was incubated for a further hour and the plates were read on a BMG Pherastar.
Data was analysed and IC50 values were calculated using Genedata Screener® software (Genedata, Inc., Basel, Switzerland).

Chain of AURKA (Aurora A) (O14965 whole entry): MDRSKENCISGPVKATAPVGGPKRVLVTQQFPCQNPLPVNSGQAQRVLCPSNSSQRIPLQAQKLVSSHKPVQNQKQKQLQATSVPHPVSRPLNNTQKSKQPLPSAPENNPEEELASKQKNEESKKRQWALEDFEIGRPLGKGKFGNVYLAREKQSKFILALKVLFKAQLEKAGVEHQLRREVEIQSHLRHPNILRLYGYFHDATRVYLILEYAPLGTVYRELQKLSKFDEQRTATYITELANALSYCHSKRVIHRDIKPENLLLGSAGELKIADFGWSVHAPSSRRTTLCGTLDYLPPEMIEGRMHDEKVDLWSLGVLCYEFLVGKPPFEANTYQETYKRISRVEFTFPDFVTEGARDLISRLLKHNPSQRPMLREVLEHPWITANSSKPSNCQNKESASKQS
Chain of JAK2 (O60674 whole entry): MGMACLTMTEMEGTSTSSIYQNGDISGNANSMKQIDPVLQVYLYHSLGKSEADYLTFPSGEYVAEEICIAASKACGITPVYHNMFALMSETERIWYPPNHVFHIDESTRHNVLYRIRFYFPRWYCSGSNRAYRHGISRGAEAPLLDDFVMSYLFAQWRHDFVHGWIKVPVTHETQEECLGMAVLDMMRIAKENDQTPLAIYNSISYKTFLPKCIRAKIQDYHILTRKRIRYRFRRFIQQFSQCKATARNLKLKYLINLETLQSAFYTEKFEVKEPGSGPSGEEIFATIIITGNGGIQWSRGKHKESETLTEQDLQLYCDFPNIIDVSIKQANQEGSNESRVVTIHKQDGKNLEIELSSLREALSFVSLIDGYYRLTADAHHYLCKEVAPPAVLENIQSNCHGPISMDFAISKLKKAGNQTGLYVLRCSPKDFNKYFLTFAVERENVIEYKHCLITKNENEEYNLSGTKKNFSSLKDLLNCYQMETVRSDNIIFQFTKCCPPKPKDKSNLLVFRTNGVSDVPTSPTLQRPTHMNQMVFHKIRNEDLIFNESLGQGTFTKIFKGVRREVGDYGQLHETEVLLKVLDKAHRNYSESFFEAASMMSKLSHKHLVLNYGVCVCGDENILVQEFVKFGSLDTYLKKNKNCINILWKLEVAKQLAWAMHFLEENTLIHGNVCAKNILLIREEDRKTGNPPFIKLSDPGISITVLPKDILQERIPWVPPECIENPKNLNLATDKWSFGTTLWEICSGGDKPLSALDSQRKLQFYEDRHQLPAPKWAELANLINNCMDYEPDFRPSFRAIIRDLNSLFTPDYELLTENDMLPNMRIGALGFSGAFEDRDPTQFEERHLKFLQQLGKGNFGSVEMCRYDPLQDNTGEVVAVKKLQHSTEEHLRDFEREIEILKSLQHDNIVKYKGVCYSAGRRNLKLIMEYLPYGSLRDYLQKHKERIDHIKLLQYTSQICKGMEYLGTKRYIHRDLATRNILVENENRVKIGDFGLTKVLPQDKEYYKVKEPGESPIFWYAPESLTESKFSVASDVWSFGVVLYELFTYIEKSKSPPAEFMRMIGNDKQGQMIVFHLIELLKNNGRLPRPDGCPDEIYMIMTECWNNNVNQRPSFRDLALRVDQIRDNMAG
Chain of TTK (P33981 whole entry): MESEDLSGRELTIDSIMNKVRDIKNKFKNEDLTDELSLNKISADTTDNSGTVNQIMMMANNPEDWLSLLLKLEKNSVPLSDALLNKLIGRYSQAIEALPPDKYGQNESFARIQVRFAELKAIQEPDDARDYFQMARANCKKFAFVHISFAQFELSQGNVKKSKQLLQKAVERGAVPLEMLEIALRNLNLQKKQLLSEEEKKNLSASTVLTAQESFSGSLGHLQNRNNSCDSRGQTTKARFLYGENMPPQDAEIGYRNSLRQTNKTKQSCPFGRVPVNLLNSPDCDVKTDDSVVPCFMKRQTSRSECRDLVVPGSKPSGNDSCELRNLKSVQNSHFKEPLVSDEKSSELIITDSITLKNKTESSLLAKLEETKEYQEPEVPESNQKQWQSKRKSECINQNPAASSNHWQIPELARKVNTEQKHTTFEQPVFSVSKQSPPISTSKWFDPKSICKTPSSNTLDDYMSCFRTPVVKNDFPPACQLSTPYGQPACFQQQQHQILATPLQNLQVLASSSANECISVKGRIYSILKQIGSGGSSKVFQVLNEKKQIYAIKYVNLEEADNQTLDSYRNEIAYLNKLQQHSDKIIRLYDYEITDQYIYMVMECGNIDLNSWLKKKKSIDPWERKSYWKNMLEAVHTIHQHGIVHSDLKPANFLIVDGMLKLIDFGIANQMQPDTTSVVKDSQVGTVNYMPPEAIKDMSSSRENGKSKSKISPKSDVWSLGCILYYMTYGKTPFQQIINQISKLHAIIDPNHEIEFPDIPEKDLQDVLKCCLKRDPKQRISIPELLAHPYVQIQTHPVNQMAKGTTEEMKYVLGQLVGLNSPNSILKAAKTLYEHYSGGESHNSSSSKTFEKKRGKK
Chain of AURKB (Aurora B) (Q96GD4 whole entry): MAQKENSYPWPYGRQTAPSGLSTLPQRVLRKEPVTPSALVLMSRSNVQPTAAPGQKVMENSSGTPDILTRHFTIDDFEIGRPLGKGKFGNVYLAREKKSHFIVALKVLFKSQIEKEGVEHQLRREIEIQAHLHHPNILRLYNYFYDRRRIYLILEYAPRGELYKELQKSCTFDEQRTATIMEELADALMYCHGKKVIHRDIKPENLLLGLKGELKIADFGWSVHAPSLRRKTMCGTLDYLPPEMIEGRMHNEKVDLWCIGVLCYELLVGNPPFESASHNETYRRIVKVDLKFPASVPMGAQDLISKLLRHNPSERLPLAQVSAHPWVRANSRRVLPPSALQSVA

SMILES | JAK2 enz pIC50 (JAK2) | TTK enz pIC50 (TTK) | AurB enz pIC50 (AURKB (Aurora B)) | AurA enz pIC50 (AURKA (Aurora A)) | DNA-PK enz pIC50 [1] | IC50 (JAK2; read-out: JAK2 enz pIC50 (converted)) [µM] | IC50 (TTK; read-out: TTK enz pIC50 (converted)) [µM] | IC50 (AURKB (Aurora B); read-out: AurB enz pIC50 (converted)) [µM] | IC50 (AURKA (Aurora A); read-out: AurA enz pIC50 (converted)) [µM] | IC50 ([1]; read-out: DNA-PK enz pIC50 (converted)) [µM]
CC(=O)N1CCC(n2c(=O)n(C)c3cnc(Nc4cc5ccnnc5cc4C)nc32)CC1 [Example 1, 9-(1-acetylpiperidin-4-yl)-7-methyl-2-((7-methylcinnolin-6-yl)amino)-7,9-dihydro-8H-purin-8-one] | <5.2 | 5.9 | <5 | <5 | 10.0 | – | – | – | – | –
CC(=O)N1CCC(n2c(=O)n(C)c3cnc(Nc4cc5nccnc5cc4C)nc32)CC1 [Example 2, 9-(1-acetylpiperidin-4-yl)-7-methyl-2-((7-methylquinoxalin-6-yl)amino)-7,9-dihydro-8H-purin-8-one] | <5 | 5.8 | <5 | <5 | 9.8 | – | – | – | – | –
CC(=O)N1CCC(n2c(=O)n(C)c3cnc(Nc4cc5cncnc5cc4C)nc32)CC1 [Example 3, 9-(1-acetylpiperidin-4-yl)-7-methyl-2-((7-methylquinazolin-6-yl)amino)-7,9-dihydro-8H-purin-8-one] | <5 | 5.4 | <5 | <5 | >10 | – | – | – | – | –
CC(=O)N1CCC(n2c(=O)n(C)c3cnc(Nc4cc5ncc(C)nc5cc4C)nc32)CC1 [Example 4, 9-(1-acetylpiperidin-4-yl)-2-((2,7-dimethylquinoxalin-6-yl)amino)-7-methyl-7,9-dihydro-8H-purin-8-one] | <5 | 6.0 | <5 | <5 | 9.0 | – | – | – | – | –
CC(=O)N1CCC(n2c(=O)n(C)c3cnc(Nc4cc5nc(C)cnc5cc4C)nc32)CC1 [Example 5, 9-(1-acetylpiperidin-4-yl)-2-((3,7-dimethylquinoxalin-6-yl)amino)-7-methyl-7,9-dihydro-8H-purin-8-one] | <5 | 5.3 | <5 | <5 | 9.1 | – | – | – | – | –
Cc1cc2ncccc2cc1Nc1ncc2c(n1)n([C@H]1CC[C@H](O)CC1)c(=O)n2C [Example 6, 9-((1r,4r)-4-hydroxycyclohexyl)-7-methyl-2-((7-methylquinolin-6-yl)amino)-7,9-dihydro-8H-purin-8-one] | <5 | 7.2 | <5 | <5 | >10 | – | – | – | – | –
Cc1cc2nnccc2cc1Nc1ncc2c(n1)n([C@H]1CC[C@H](O)CC1)c(=O)n2C [Example 7, 9-((1r,4r)-4-hydroxycyclohexyl)-7-methyl-2-((7-methylcinnolin-6-yl)amino)-7,9-dihydro-8H-purin-8-one] | <5 | 6.9 | <5 | <5 | >10 | – | – | – | – | –
Cc1cc2nccc(C)c2cc1Nc1ncc2c(n1)n([C@H]1CC[C@H](O)CC1)c(=O)n2C [Example 8, 2-((4,7-dimethylquinolin-6-yl)amino)-9-((1r,4r)-4-hydroxycyclohexyl)-7-methyl-7,9-dihydro-8H-purin-8-one] | – | – | – | – | – | > 10 | 0.631 | > 10 | > 10 | < 0.0001
